The record followed here is patent US20210355121A1, “FUSED TRICYCLIC KRAS INHIBITORS” (Incyte Corporation, priority 2020, published 2021).

The target of one test is KRAS G12C (Homo sapiens, UniProt P01116, G12C). The test is described as follows: KRAS G12C GDP-GTP exchange assay (bodipy-GDP for GppNHp, with SOS1). The test is classed as biochemical. To be noted: 2.5 nM bodipy-loaded KRAS G12C, 2 hours pre-incubation with inhibitor, 2 hours after GppNHp-SOS1; read-out: G12C_exchange (KRAS_G12C exchange assay IC50). In a few lines: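 Fluorescence nucleotide-exchange assay: bodipy-GDP-loaded KRAS (2.5 nM final) pre-incubated with inhibitor 2 h at ambient temperature, then 500 µM GppNHp plus 150 nM SOS1 added in pH 7.5 Hepes/MgCl2 buffer. Exchange read at ex 485/em 520 nm after 2 h (G12C), 4 h (G12D) or 3 h (G12V). IC50 from four-parameter logistic fit.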
KRAS G12C, sequence (P01116 1-188 isoform P01116-2 G12C): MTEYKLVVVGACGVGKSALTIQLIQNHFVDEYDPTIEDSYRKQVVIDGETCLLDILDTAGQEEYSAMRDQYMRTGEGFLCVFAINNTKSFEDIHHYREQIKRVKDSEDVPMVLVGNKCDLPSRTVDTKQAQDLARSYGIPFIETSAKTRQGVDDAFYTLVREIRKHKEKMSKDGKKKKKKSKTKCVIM

The test system of test [1] is MIA PaCa-2 (KRAS G12C) cells. The test is described as follows: KRAS_G12C cellular pERK HTRF assay. The test is classed as cell-based, human. To be noted: phospho-ERK1/2 HTRF, 4 hours incubation; for IC50: Homo sapiens, MIA PaCa-2, read-out: G12C_pERK (KRAS_G12C pERK assay IC50). Set-up: G12C_pERK (KRAS_G12C pERK assay IC50): scale not given here. In a few lines: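 MIA PaCa-2 (G12C) or G12D lines (A427, HPAF-II) in RPMI/10% FBS, treated with compound for 4 h (G12C) or 2 h (G12D) at 37 °C after overnight plating. Lysed, phospho-ERK1/2 detected by HTRF (665/620 nm). IC50 from percent inhibition versus log concentration.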
On the technique in general: Time-resolved FRET reads energy transfer from a long-lived donor to a nearby acceptor.

Each structure is given as a SMILES string.

For orientation: IC50 means the concentration that inhibits the measured activity by half. For `Cc1cc2[nH]ncc2c(-c2c(Cl)cc3c(nc(N4CC(N(C)C)C4)c4cnn([C@H]5CCN(C(=O)/C=C/CF)[C@H](CC#N)C5)c43)c2F)c1C` (single isomer, unassigned) [Example 72a], the IC50 (on KRAS G12C; in test [1]) was at most 100 nM in each case.
For the molecule `C=C(F)C(=O)N1CC[C@H](n2ncc3c(N4CC(N(C)C)C4)nc4c(F)c(-c5c(C)c(C)cc6[nH]ncc56)c(Cl)cc4c32)C[C@H]1CC#N` (single isomer, unassigned) [Example 73a], the IC50 (on KRAS G12C; in test [1]) was at most 100 nM throughout.
Turning to `CC#CC(=O)N1CC[C@H](n2ncc3c(N4CC(N(C)C)C4)nc4c(F)c(-c5c(C)c(C)cc6[nH]ncc56)c(Cl)cc4c32)C[C@H]1CC#N` (single isomer, unassigned) [Example 74a], the IC50 (at KRAS G12C; in test [1]) was at most 100 nM throughout.
As to `COC/C=C/C(=O)N1CC[C@H](n2ncc3c(N4CC(N(C)C)C4)nc4c(F)c(-c5c(C)c(C)cc6[nH]ncc56)c(Cl)cc4c32)C[C@H]1CC#N` (single isomer, unassigned) [Example 75a], the IC50 (on KRAS G12C; in test [1]) was at most 100 nM in each case.
Regarding `Cc1cc2[nH]ncc2c(-c2c(Cl)cc3c(nc(N4CC(N(C)C)C4)c4cnn([C@H]5CCN(C(=O)/C=C/CN(C)C)[C@H](CC#N)C5)c43)c2F)c1C` (single isomer, unassigned) [Example 76a], the IC50 (at KRAS G12C; in test [1]) was at most 100 nM each time.
For the molecule `C=C(F)C(=O)N1CC[C@H](n2ncc3c(OCC4CCCN4C)nc4c(F)c(-c5c(C)c(C)cc6[nH]ncc56)c(Cl)cc4c32)C[C@H]1CC#N` (single isomer, unassigned) [Example 77a], the concentration for half-maximal inhibition (IC50) (on KRAS G12C; in test [1]) was at most 100 nM in each case.
With `CC#CC(=O)N1CC[C@H](n2ncc3c(OC[C@@H]4CCCN4C)nc4c(F)c(-c5c(C)c(C)cc6[nH]ncc56)c(Cl)cc4c32)C[C@H]1CC#N` (single isomer, unassigned) [Example 78a], the IC50 (on KRAS G12C; in test [1]) was at most 100 nM in each case.
Consider `COC/C=C/C(=O)N1CC[C@H](n2ncc3c(OC[C@@H]4CCCN4C)nc4c(F)c(-c5c(C)c(C)cc6[nH]ncc56)c(Cl)cc4c32)C[C@H]1CC#N` (single isomer, unassigned) [Example 79a], for which the IC50 (on KRAS G12C; in test [1]) was at most 100 nM each time.
Regarding `Cc1cc2[nH]ncc2c(-c2c(Cl)cc3c(nc(OC[C@@H]4CCCN4C)c4cnn([C@H]5CCN(C(=O)/C=C/CN(C)C)[C@H](CC#N)C5)c43)c2F)c1C` (single isomer, unassigned) [Example 80a], the IC50 (on KRAS G12C; in test [1]) was at most 100 nM each time.
`C=C(F)C(=O)N1CC[C@H](n2ncc3c(N4CC(C)(N(C)C)C4)nc4c(F)c(-c5c(C)c(C)cc6[nH]ncc56)c(Cl)cc4c32)C[C@H]1CC#N` (single isomer, unassigned) [Example 81a]: the IC50 (at KRAS G12C; in test [1]) was at most 100 nM throughout.
As to `CC#CC(=O)N1CC[C@H](n2ncc3c(N4CC(C)(N(C)C)C4)nc4c(F)c(-c5c(C)c(C)cc6[nH]ncc56)c(Cl)cc4c32)C[C@H]1CC#N` (single isomer, unassigned) [Example 82a], the concentration for half-maximal inhibition (IC50) (at KRAS G12C; in test [1]) was at most 100 nM in each case.
On to `COC/C=C/C(=O)N1CC[C@H](n2ncc3c(N4CC(C)(N(C)C)C4)nc4c(F)c(-c5c(C)c(C)cc6[nH]ncc56)c(Cl)cc4c32)C[C@H]1CC#N` (single isomer, unassigned) [Example 83a], for which the IC50 (at KRAS G12C; in test [1]) was at most 100 nM throughout.
For `Cc1cc2[nH]ncc2c(-c2c(Cl)cc3c(nc(N4CC(C)(N(C)C)C4)c4cnn([C@H]5CCN(C(=O)/C=C/CN(C)C)[C@H](CC#N)C5)c43)c2F)c1C` (single isomer, unassigned) [Example 84a], the IC50 (at KRAS G12C; in test [1]) was at most 100 nM in each case.
Regarding `CC#CC(=O)N1CC[C@H](n2ccc3c(OC[C@@H]4CCCN4C)nc4c(F)c(-c5c(C)c(C)cc6[nH]ncc56)c(Cl)cc4c32)C[C@H]1CC#N` (single isomer, unassigned) [Example 90a], the IC50 (at KRAS G12C; in test [1]) was at most 100 nM in each case.
With `C=CC(=O)N1CCC(n2ncc3cnc4c(F)c(-c5cc(O)cc6ccccc56)c(Cl)cc4c32)CC1` [Example 1], at KRAS G12C, the IC50 was at most 100 nM. In addition, in test [1], the “G12C_pERK (KRAS_G12C pERK assay IC50)” value is “††”.
Turning to `C=CC(=O)N1CCC(n2ncc3c(N4CC(N(C)C)C4)nc4c(F)c(-c5cc(O)cc6ccccc56)c(Cl)cc4c32)CC1` [Example 2, 1-(4-(8-chloro-4-(3-(dimethylamino)azetidin-1-yl)-6-fluoro-7-(3-hydroxynaphthalen-1-yl)-1H-pyrazolo[4,3-c]quinolin-1-yl)piperidin-1-yl)prop-2-en-1-one], the IC50 (at KRAS G12C; in test [1]) was at most 100 nM in each case.
For `C=CC(=O)N1CC[C@H](n2ncc3c(N4CC(N(C)C)C4)nc4c(F)c(-c5cncc6ccccc56)c(Cl)cc4c32)C[C@H]1CC#N` [Example 22, 2-((2S,4S)-1-acryloyl-4-(8-chloro-4-(3-(dimethylamino)azetidin-1-yl)-6-fluoro-7-(isoquinolin-4-yl)-1H-pyrazolo[4,3-c]quinolin-1-yl)piperidin-2-yl)acetonitrile], the IC50 (on KRAS G12C; in test [1]) was at most 100 nM each time.
With `C=CC(=O)N1CC[C@H](n2ncc3c(N4CC(N(C)C)C4)nc4c(F)c(-c5cccc(C)c5Cl)c(Cl)cc4c32)C[C@H]1CC#N` [Example 23, 2-((2S,4S)-1-acryloyl-4-(8-chloro-7-(2-chloro-3-methylphenyl)-4-(3-(dimethylamino)azetidin-1-yl)-6-fluoro-1H-pyrazolo[4,3-c]quinolin-1-yl)piperidin-2-yl)acetonitrile], the IC50 (at KRAS G12C; in test [1]) was at most 100 nM each time.
`Cc1cccc(-c2c(Cl)cc3c(nc(N4CC(N(C)C)C4)c4cnn([C@H]5CCN(C(=O)/C=C/CN(C)C)[C@H](CC#N)C5)c43)c2F)c1Cl` [Example 24, 2-((2S,4S)-4-(8-chloro-7-(2-chloro-3-methylphenyl)-4-(3-(dimethylamino)azetidin-1-yl)-6-fluoro-1H-pyrazolo[4,3-c]quinolin-1-yl)-1-((E)-4-(dimethylamino)but-2-enoyl)piperidin-2-yl)acetonitrile]: the IC50 (on KRAS G12C; in test [1]) was at most 100 nM in each case.
With `C=CC(=O)N1CC[C@H](n2ncc3c(N4CC(N(C)C)C4)nc4c(F)c(-c5cccc(C)c5C(F)(F)F)c(Cl)cc4c32)C[C@H]1CC#N` [Example 27, 2-((2S,4S)-1-acryloyl-4-(8-chloro-4-(3-(dimethylamino)azetidin-1-yl)-6-fluoro-7-(3-methyl-2-(trifluoromethyl)phenyl)-1H-pyrazolo[4,3-c]quinolin-1-yl)piperidin-2-yl)acetonitrile], the IC50 (on KRAS G12C; in test [1]) was at most 100 nM throughout.
Take `C=CC(=O)N1CC[C@H](n2ncc3c(OC[C@@H]4CCCN4C)nc4c(F)c(-c5cccc(C)c5C(F)(F)F)c(Cl)cc4c32)C[C@H]1CC#N` [Example 28, 2-((2S,4S)-1-acryloyl-4-(8-chloro-6-fluoro-7-(3-methyl-2-(trifluoromethyl)phenyl)-4-(((S)-1-methylpyrrolidin-2-yl)methoxy)-1H-pyrazolo[4,3-c]quinolin-1-yl)piperidin-2-yl)acetonitrile]: the IC50 (on KRAS G12C; in test [1]) was at most 100 nM throughout.
In the case of `CN(C)C/C=C/C(=O)N1CC[C@H](n2ncc3c(N4CC(C)(N(C)C)C4)nc4c(F)c(-c5cccc6cccc(Cl)c56)c(Cl)cc4c32)C[C@H]1CC#N` [Example 63, 2-((2S,4S)-4-(8-chloro-7-(8-chloronaphthalen-1-yl)-4-(3-(dimethylamino)-3-methylazetidin-1-yl)-6-fluoro-1H-pyrazolo[4,3-c]quinolin-1-yl)-1-((E)-4-(dimethylamino)but-2-enoyl)piperidin-2-yl)acetonitrile], the IC50 (at KRAS G12C; in test [1]) was at most 100 nM throughout.
For the molecule `C[C@H](Oc1nc2c(F)c(-c3cccc4cccc(Cl)c34)c(Cl)cc2c2c1cnn2[C@H]1CCN(C(=O)/C=C/CF)[C@H](CC#N)C1)[C@@H]1CCCN1C` [Example 85, 2-((2S,4S)-4-(8-chloro-7-(8-chloronaphthalen-1-yl)-6-fluoro-4-((S)-1-((S)-1-methylpyrrolidin-2-yl)ethoxy)-1H-pyrazolo[4,3-c]quinolin-1-yl)-1-((E)-4-fluorobut-2-enoyl)piperidin-2-yl)acetonitrile], the concentration for half-maximal inhibition (IC50) (at KRAS G12C; in test [1]) was at most 100 nM each time.
As to `C=C(F)C(=O)N1CC[C@H](n2ncc3c(O[C@@H](C)[C@@H]4CCCN4C)nc4c(F)c(-c5cccc6cccc(Cl)c56)c(Cl)cc4c32)C[C@H]1CC#N` [Example 86, 2-((2S,4S)-4-(8-chloro-7-(8-chloronaphthalen-1-yl)-6-fluoro-4-((S)-1-((S)-1-methylpyrrolidin-2-yl)ethoxy)-1H-pyrazolo[4,3-c]quinolin-1-yl)-1-(2-fluoroacryloyl)piperidin-2-yl)acetonitrile], the IC50 (at KRAS G12C; in test [1]) was at most 100 nM in each case.
